# How the values were obtained:
# Assay type in all cases: biochemical
# Human lung tryptase = target: T1, Human lung tryptase; test: Human lung tryptase inhibition, chromogenic GPR-pNA substrate
# T1 construct: Human lung tryptase purchased from Cortex Biochem (San Leandro, Calif.) was purified further on a Superdex 200 gel-filtration column
# Description: (§1) Protease inhibition was assayed according to published procedures with minor modifications using various proteases and specific chromogenic peptide p-nitroanilide substrates. Assays were performed in Costar ultra-low cluster 96-well microtiter plate (Costar Corning Corp., Cambridge Mass.). Each protease was incubated with various concentrations of the test compound for 15 min. at 37° C. or as otherwise indicated, in specific assay buffer, and the residual activity was then measured by addition of the substrate. p-Nitroaniline produced by the proteolysis was determined by measuring the change in absorbance at 405 nm on a SpectraMAX 340 plate reader (Molecular devices, Sunnyvale, Calif.).
# (§2) 1. The inhibition constant, Ki is calculated from individual data points using the equation for a tight-binding inhibitor (See Beith, “Proteinase Inhibitors-Proceedings of 2nd Int. Res. Conference”, Fritz, et al. eds., New York, p.4463-4469 (1974)):
# vi/vo=[((Ki′+[I]+[E]o)^2−4[I]o[E]o)^½(Ki′+[I]o−[E]o)]/2[E]o
# where Ki′ is apparent inhibition constant; vi and vo are the inhibited and uninhibited rates, respectively; [I]o and [E]o are the total concentrations of inhibitor and enzyme, respectively.
# [note: [E]o is determined by active site titration of enzyme]
# (§3) The Ki values are obtained by correcting Ki ′ values for the effect of substrate concentration according to: [formula]
# (§4) 2. Other inhibition data (Ki>>[E]o), the Ki is calculated from using the equations for a competitive inhibitor: [formula]
# IC50 is determined by fitting the individual inhibition data point to Sigmoid or four-parameter curve-fit equations.
# Human lung tryptase purchased from Cortex Biochem (San Leandro, Calif.) was purified further on a Superdex 200 gel-filtration column. The active-site concentration of the enzyme was determined by spectrophotometric titration with 4-nitrophenyl 4′-guanidinobenzoate according to Schwartz, et al., J. Immunol., 114, 2304-2311 (1990). Tryptase activity was measured according to the procedures of Schwartz, et al., J. Biol. Chem., 261, 7372-7379 (1986) (See also, Schwartz, L. B., Methods In Enzymology, 244, 88 (1994)) with minor modifications, using Tosyl-Gly-Pro-Arg-p-nitroanilide (“GPR-pNA”, Sigma Chemical Co., St. Louis, Mo., T-1637) as a chromogenic substrate. The reaction was performed in 50 mM Tris-HCl, pH 8.0, containing 150 mM NaCl and 0.02% Triton X-100 at 37° C. in Costar ultra-low cluster 96-well microtiter plates (Costar Corning Corp., Cambridge, Mass.). The amount of pNA produced by tryptase was determined by measuring the change in absorbance at 405 nm on a SpectraMAX 340 plate reader (Molecular devices, Sunnyvale, Calif.). The Km for the substrate was determined by Lineweaver-Burk analysis from initial velocities of substrate hydrolysis. The inhibition assay was carried out in a total volume of 200 μL. Tryptase (30 μL-final concentration 1 nM) was incubated with various concentrations of sample compound (50 μL) to be tested in the above assay buffer for 5 min. The reaction was started by the addition of substrate GPR-pNA (40 μL-final concentration 320 μM), and the residual activity was measured after 15 min. of incubation. The inhibition constant, Ki, was determined by fitting the inhibition data to a two-site competitive binding equation using data analysis program GraphPad PRISM (GraphPad Software, Inc., San Diego, Calif.).
# (§5) The inhibition constant (Ki) of the test compounds against each proteolytic enzyme was determined according to Zitnik et al., Biochem. Biophys. Res. Commun. 232, 687-697 (1997)).
# [1] = target: T2, Bovine pancreatic Trypsin (TPCK-treated) (Bos taurus, UniProt P00760); test: Bovine pancreatic trypsin inhibition, N-α-Benzoyl-L-Arg-pNA substrate; details: the 5th table, unit inferred
# T2 construct: from tissue; host or cells: bovine pancreas
# T2 sequence (P00760 24-246): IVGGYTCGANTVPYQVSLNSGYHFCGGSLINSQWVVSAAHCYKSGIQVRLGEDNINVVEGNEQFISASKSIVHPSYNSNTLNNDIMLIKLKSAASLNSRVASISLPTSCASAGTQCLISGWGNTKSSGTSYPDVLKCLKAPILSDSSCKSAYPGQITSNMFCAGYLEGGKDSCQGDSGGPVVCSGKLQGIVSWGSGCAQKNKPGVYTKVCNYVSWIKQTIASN
# Description: as §1, §2, §3, §4
# C. Bovine Pancreatic Trypsin
# Bovine pancreatic Trypsin (TPCK-treated) activity was determined by using N-α-Benzoyl-L-Arg-pNA in 50 mM Tris-HCl, pH 8.2, 20 mM CaCl2 (See Somorin, et al., J. Biochem. 85, 157-162 (1979)).
# as §5
# Human plasma factor Xa = target: T3, Human plasma factor Xa (Homo sapiens, UniProt P00742); test: Human plasma factor Xa inhibition, N-Benzoyl-Ile-Glu-Gly-Arg-pNA substrate; details: 50 mM Tris-HCl, pH 7.8, 200 mM NaCl, 0.05% BSA
# T3 construct: from tissue; host or cells: human plasma
# T3 sequence (P00742 235-488 limits assumed): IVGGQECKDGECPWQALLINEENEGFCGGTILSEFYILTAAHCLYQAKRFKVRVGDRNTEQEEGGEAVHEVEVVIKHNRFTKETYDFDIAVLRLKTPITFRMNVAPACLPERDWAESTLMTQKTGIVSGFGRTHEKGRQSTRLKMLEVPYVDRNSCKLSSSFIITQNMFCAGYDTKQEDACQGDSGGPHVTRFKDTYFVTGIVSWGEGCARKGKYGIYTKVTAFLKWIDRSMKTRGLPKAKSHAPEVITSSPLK
# T3 sequence (P00742 41-179 partner limits assumed): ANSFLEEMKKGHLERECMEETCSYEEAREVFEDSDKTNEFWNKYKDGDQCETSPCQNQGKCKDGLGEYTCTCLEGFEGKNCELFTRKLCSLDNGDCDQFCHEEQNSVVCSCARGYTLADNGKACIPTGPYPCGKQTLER
# Description: as §1
# (§6) 1. The inhibition constant, Ki is calculated from individual data points using the equation for a tight-binding inhibitor (See Beith, “Proteinase Inhibitors-Proceedings of 2nd Int. Res. Conference”, Fritz, et al. eds., New York, p.4463-4469 (1974)): […]
# (§7) 2. Other inhibition data (Ki>>[E]o), the Ki is calculated from using the equations for a competitive inhibitor: [formula] […]
# Human plasma factor Xa activity was determined by using N-Benzoyl-Ile-Glu-Gly-Arg-pNA in 50 mM Tris-HCl, pH 7.8, 200 mM NaCl, 0.05% BSA (See Lottenberg, et al. Meth. Enzymol. 80, 341-361 (1981)).
# (§8) The inhibition constant (Ki) of the test compounds against each proteolytic enzyme was determined according to Zitnik et al., Biochem. Biophys. […]
# Human plasma kallikrein = target: T4, Human plasma kallikrein (Homo sapiens, UniProt P03952); test: Human plasma kallikrein inhibition, H-D-Prolyl-Phe-Arg-pNA substrate; details: 50 mM Tris-HCl, pH 7.8, 200 mM NaCl, 0.05% BSA
# T4 construct: from tissue; host or cells: human plasma
# T4 sequence (P03952 391-638 limits assumed): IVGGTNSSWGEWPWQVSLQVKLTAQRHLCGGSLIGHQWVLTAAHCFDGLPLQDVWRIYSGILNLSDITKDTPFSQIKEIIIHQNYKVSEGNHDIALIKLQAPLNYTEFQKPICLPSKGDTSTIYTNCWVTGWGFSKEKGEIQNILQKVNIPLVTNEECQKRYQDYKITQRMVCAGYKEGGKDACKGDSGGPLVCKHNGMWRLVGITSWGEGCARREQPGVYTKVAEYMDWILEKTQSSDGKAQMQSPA
# T4 sequence (P03952 20-390 partner limits assumed): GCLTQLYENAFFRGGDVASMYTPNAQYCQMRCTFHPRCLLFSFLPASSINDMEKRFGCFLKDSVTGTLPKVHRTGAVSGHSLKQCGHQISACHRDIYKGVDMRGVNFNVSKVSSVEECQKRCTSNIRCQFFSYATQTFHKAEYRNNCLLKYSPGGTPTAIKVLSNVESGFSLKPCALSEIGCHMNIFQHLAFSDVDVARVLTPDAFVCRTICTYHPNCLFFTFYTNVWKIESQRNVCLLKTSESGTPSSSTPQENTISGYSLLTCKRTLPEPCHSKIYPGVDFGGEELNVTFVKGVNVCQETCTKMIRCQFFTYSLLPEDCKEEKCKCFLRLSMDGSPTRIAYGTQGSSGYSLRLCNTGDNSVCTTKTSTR
# Description: as §1, §6, §7
# (§9) Human plasma and r-tissue kallikrein activity were determined in 50 mM Tris-HCl1, pH 7.8, 200 mM NaCl, 0.05% BSA by using H-D-Prolyl-Phe-Arg-pNA and DL-Val-Leu-Arg-pNA, respectively (See Lottenberg, et al., Meth. Enzymol. 80, 341-361 (1981)). […]
# [2] = target: T5, Bovine Pancreatic Chymotrypsin (Bos taurus, UniProt P00766); test: Bovine pancreatic chymotrypsin inhibition, N-Suc-Ala-Ala-Pro-Phe-pNA substrate; details: 100 mM Tris-HCl, pH 7.8, 10 mM CaCl2
# T5 construct: from tissue; host or cells: bovine pancreas
# Description: as §1, §6, §7
# Bovine Pancreatic Chymotrypsin activity was determined by using N-Suc-Ala-Ala-Pro-Phe-pNA in 100 mM Tris-HCl, pH 7.8, 10 mM CaCl2 (See Delmar, et al., J. Biochem. 85, 157-162 (1979)).
# as §8
# [3] = target: Human r-tissue kallikrein (Homo sapiens, UniProt P06870); test: Human r-tissue kallikrein inhibition, DL-Val-Leu-Arg-pNA substrate; details: 50 mM Tris-HCl, pH 7.8, 200 mM NaCl, 0.05% BSA
# Sequence of Human r-tissue kallikrein (P06870 25-262): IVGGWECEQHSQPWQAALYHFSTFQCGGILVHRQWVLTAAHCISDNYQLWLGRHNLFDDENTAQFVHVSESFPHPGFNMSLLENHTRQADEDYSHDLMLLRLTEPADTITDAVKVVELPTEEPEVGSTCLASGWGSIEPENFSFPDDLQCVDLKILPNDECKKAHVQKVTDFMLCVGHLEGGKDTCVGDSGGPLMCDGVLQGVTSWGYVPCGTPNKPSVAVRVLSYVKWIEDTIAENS
# Description: as §1, §6, §7, §9
structure (smiles),measurement,setting,value
Cc1cc2cc(CNC(=O)Cc3cc4cc(C(=N)N)ccc4s3)ccc2[nH]1 [drawing 17 Benzthiophene 5-carboxamidine n=1],Ki,"Human lung tryptase; the 5th table, unit inferred",41 nM
same,Ki,"Human lung tryptase; tryptase 1 nM, GPR-pNA 320 μM, 50 mM Tris-HCl pH 8.0, 37° C.",41 nM
same,Ki,[1],2400 nM
same,Ki,Human plasma factor Xa,17700 nM
same,Ki,Human plasma kallikrein,1600 nM
same,Ki,[2],> 100000 nM
same,Ki,[3],> 100000 nM

# Source: US6362216B1, “Compounds which inhibit tryptase activity” (Array Biopharma Inc., priority 1998, dated 2002)
